Each structure is given as a SMILES string. Active and inactive are the calls of the source. No cut-off for these calls is given here.

For the experiment, the species on record is Homo sapiens. As to the kind of experiment: Activity at human P-glycoprotein assessed as ATPase activity using firefly luciferase at 200 uM by Pgp-Glo assay in presence of MgATP.
On to `O=C1CC[C@@]2(O)[C@H]3Cc4ccc(O)c5c4[C@@]2(CCN3CCc2ccccc2)[C@H]1O5`, for which the outcome was Active.

Consider `O=C1CC[C@@]2(O)[C@H]3Cc4ccc(O)c5c4[C@@]2(CCN3Cc2ccccc2)[C@H]1O5`, for which the outcome was Active.

Consider `O=C1CC[C@@]2(O)[C@H]3Cc4ccc(O)c5c4[C@@]2(CCN3CCCc2ccccc2)[C@H]1O5`, for which the outcome was Active.

In the case of `O=C1CC[C@@]2(O)[C@H]3Cc4ccc(O)c5c4[C@@]2(CCN3CC2CC2)[C@H]1O5`, the outcome was inactive.

`CN1CC[C@]23c4c5ccc(O)c4O[C@H]2C(=O)CC[C@@]3(O)[C@H]1C5`: the result was inactive.

Consider `CC(C)=CCN1CC[C@]23c4c5ccc(O)c4O[C@H]2C(=O)CC[C@@]3(O)[C@H]1C5`, for which the result was inactive.

Consider `C=C(C)CN1CC[C@]23c4c5ccc(O)c4O[C@H]2C(=O)CC[C@@]3(O)[C@H]1C5`, for which the outcome was Active.

For `C=CCN1CC[C@]23c4c5ccc(O)c4O[C@H]2C(=O)CC[C@@]3(O)[C@H]1C5`, the result was inactive.

For the molecule `C/C=C/CN1CC[C@]23c4c5ccc(O)c4O[C@H]2C(=O)CC[C@@]3(O)[C@H]1C5`, the result was Active.

The values above are taken from ChEMBL document CHEMBL3351858, “Opioids and efflux transporters. Part 4: influence of N-substitution on P-glycoprotein substrate activity of noroxymorphone analogues” (Bioorg Med Chem Lett, 2014).
